In ChEMBL document CHEMBL1926546, “New N-methylpiperazinyl derivatives of bicyclic antiprotozoal compounds” (Eur J Med Chem, 2012):
Active and inactive are the calls of the source. The calls are words filed in the database; no cut-off is given here.

Legend:
L6 = experiment: Cytotoxicity against rat L6 cells; assay type: cell-based
Plasmodium falciparum = experiment: Antiplasmodial activity against chloroquine and pyrimethamine-resistant Plasmodium falciparum K1 assessed as [3H]hypoxanthine incorporation after 48 hrs by liquid scintillation counter; assay type: functional, organism-based
[1] = Selectivity index, ratio of IC50 for rat L6 cells to IC50 for Trypanosoma brucei rhodesiense STIB900; assay type: toxicity, cell-based; settings: L6 cells (versus Trypanosoma brucei rhodesiense STIB900), read-out: Ratio IC50
[2] = Selectivity index, ratio of IC50 for rat L6 cells to IC50 for chloroquine and pyrimethamine-resistant Plasmodium falciparum K1; assay type: toxicity, cell-based; settings: L6 cells (versus Plasmodium falciparum K1), read-out: Ratio IC50
[3] = tested on: Trypanosoma brucei rhodesiense; experiment: Antitrypanosomal activity against Trypanosoma brucei rhodesiense STIB900 bloodstream forms after 72 hrs by serial dilution Alamar blue assay; assay type: functional, organism-based; settings: STIB900, 72 h
Plasmodium berghei [4] = experiment: Antimalarial activity against Plasmodium berghei ANKA infected in albino mouse assessed as inhibition of parasitemia at 30 to 50 mg/kg, ip administered as single dose post-infection measured after 24 hrs by Giemsa staining-based microscopy; assay type: functional; settings: dose mg/kg 30-50; route intraperitoneal
Plasmodium berghei [5] = experiment: Antimalarial activity against Plasmodium berghei ANKA infected in albino mouse assessed as prolongation of survival time at 30 to 50 mg/kg, ip administered as single dose post infection (reference value: 6.7 days); assay type: functional; settings: dose mg/kg 30-50; route intraperitoneal
[6] = tested on: Trypanosoma brucei brucei; experiment: […] activity against Trypanosoma brucei brucei STIB 795 infected in NMRI mouse assessed as reduction in parasitemia compound administered on day 3 and day 6 post infection measured after 24 hrs; assay type: functional, organism-based
[7] = tested on: Trypanosoma brucei brucei; experiment: […] activity against Trypanosoma brucei brucei STIB 795 infected in NMRI mouse assessed as reduction in parasitemia compound administered on day 3 and day 6 post infection measured on day 10; assay type: functional, organism-based

| Structure (SMILES) | IC50 (L6) | IC50 (Plasmodium falciparum) | selectivity ratio [1] | selectivity ratio [2] | IC50 [3] | inhibition (INH) (Plasmodium berghei [4]) | MST (Plasmodium berghei [5]) | Activity [6] | Activity [7] |
| --- | --- | --- | --- | --- | --- | --- | --- | --- | --- |
| CN1CCN(CCCC(=O)OC2CC3(N(C)C)CC(c4ccccc4)C2C(c2ccccc2)C3)CC1 (racemic) | 19.9 µM | 0.24 µM | 248 | 82.7 | 0.08 µM |  |  |  |  |
| Nc1nc(N)nc(Nc2ccc([As]3SCC(CO)S3)cc2)n1 (stereo not drawn) [MELARSOPROL] |  |  | 1940 |  | 0.009 µM |  |  |  |  |
| c1ccc(C2CC3(N4CCCCC4)CCN(CCCN4CCCCC4)C2C(c2ccccc2)C3)cc1 (stereo not drawn) |  |  | 7.5 |  | 18.4 µM |  |  |  |  |
| CN1CCN(CCCN2CCC3(N4CCCC4)CC(c4ccccc4)C2C(c2ccccc2)C3)CC1 (racemic) | 27.4 µM | 0.27 µM | 3.93 | 102 | 6.99 µM | 39% | 7.7 days |  |  |
| CN1CCN(CC(=O)NC2CC3(N4CCN(C)CC4)CC(c4ccccc4)C2C(c2ccccc2)C3)CC1 (racemic) | 42.1 µM | 0.62 µM | 20.4 | 67.9 | 2.06 µM |  |  |  |  |
| CN1CCN(CCC(=O)OC2CC3(N4CCCC4)CC(c4ccccc4)C2C(c2ccccc2)C3)CC1 (racemic) | 21.3 µM | 0.26 µM | 47.4 | 82 | 0.45 µM |  |  |  |  |
| CCN(CC)CCC(=O)OC1CC2(N(C)C)CC(c3ccccc3)C1C(c1ccccc1)C2 (stereo not drawn) |  |  | 215 | 54.9 |  |  |  |  |  |
| CN1CCN(CCN2CCC3(N4CCCC4)CC(c4ccccc4)C2C(c2ccccc2)C3)CC1 (racemic) | 50.3 µM | 0.023 µM | 7.93 | 2190 | 6.35 µM | 39% | 8.3 days |  |  |
| CN1CCN(CCCC(=O)OC2CC3(N4CCCCC4)CC(c4ccccc4)C2C(c2ccccc2)C3)CC1 (racemic) | 22.3 µM | 0.05 µM | 139 | 446 | 0.16 µM |  |  |  |  |
| CN1CCN(CCN2CCC3(N(C)C)CC(c4ccccc4)C2C(c2ccccc2)C3)CC1 (racemic) | 70.3 µM | 0.52 µM | 5.19 | 135 | 13.5 µM |  |  |  |  |
| CN1CCN(CCCN2CCC3(N4CCCCC4)CC(c4ccccc4)C2C(c2ccccc2)C3)CC1 (racemic) | 62.5 µM | 0.11 µM | 3.55 | 568 | 17.6 µM |  |  |  |  |
| CN1CCN(CCC(=O)OC2CC3(N4CCCCC4)CC(c4ccccc4)C2C(c2ccccc2)C3)CC1 (racemic) | 23.5 µM | 0.06 µM | 271 | 392 | 0.087 µM |  |  | Active | Active |
| CN1CCN(C23CCNC(C(c4ccccc4)C2)C(c2ccccc2)C3)CC1 (racemic) | 96.9 µM | 1.5 µM | 255 | 64.6 | 0.38 µM |  |  |  |  |
| CN1CCN(CCN2CCC3(N4CCCCC4)CC(c4ccccc4)C2C(c2ccccc2)C3)CC1 (racemic) | 127 µM | 0.3 µM | 2.91 | 424 | 43.7 µM |  |  |  |  |
| C[C@@H]1CC[C@H]2[C@@H](C)C(=O)O[C@@H]3O[C@@]4(C)CC[C@@H]1[C@]32OO4 [ARTEMISININ] |  | 0.0064 µM |  |  |  |  |  |  |  |
| CN1CCN(CCCN2CCC3(N4CCN(C)CC4)CC(c4ccccc4)C2C(c2ccccc2)C3)CC1 (racemic) | 47.8 µM | 0.25 µM | 7.16 | 191 | 6.67 µM |  |  |  |  |
| CN1CCN(CCC(=O)OC2CC3(N(C)C)CC(c4ccccc4)C2C(c2ccccc2)C3)CC1 (racemic) | 31.1 µM | 0.46 µM | 148 | 67.7 | 0.21 µM |  |  |  |  |
| CN1CCN(CCC(=O)N2CCC3(N4CCN(C)CC4)CC(c4ccccc4)C2C(c2ccccc2)C3)CC1 (racemic) | 161 µM | 1.95 µM | 44.5 | 82.5 | 3.62 µM |  |  |  |  |
| CN1CCN(CCC(=O)NC2CC3(N4CCN(C)CC4)CC(c4ccccc4)C2C(c2ccccc2)C3)CC1 (racemic) | 67.9 µM | 0.55 µM | 20.6 | 123 | 3.3 µM |  |  |  |  |
| CN1CCN(CCCC(=O)OC2CC3(N4CCCC4)CC(c4ccccc4)C2C(c2ccccc2)C3)CC1 (racemic) | 10.2 µM | 0.12 µM | 67.7 | 84.7 | 0.15 µM |  |  |  |  |
| CN1CCN(CCCN2CCC3(N(C)C)CC(c4ccccc4)C2C(c2ccccc2)C3)CC1 (racemic) | 54.5 µM | 0.51 µM | 4.74 | 107 | 11.5 µM |  |  |  |  |
